In patent US20100010219A1, “METHOD FOR PRODUCING PYRROLIDINE COMPOUND” (JAPAN TOBACCO INC., priority 2006, published 2010):
Where a name gives a salt, the structure may show the parent alone.

Target: T1, human HSD-1 (recombinant HSD-1) (Homo sapiens, UniProt P28845)
T1 construct: made in house
Assay: HSD-1 activity inhibitory action in vitro (SPA, conversion of cortisone to cortisol)
Type: biochemical
Settings: not given

T1 sequence (P28845 whole entry): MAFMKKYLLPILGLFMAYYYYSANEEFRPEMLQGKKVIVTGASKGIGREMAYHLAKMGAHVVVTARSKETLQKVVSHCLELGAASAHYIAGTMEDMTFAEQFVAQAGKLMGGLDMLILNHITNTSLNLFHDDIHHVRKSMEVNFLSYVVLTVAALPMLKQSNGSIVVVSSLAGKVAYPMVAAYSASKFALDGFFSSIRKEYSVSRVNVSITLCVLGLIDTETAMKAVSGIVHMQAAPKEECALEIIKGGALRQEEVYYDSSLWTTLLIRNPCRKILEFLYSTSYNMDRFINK

Compound	IC50
O=C1CCN(C(=O)N2CCC(n3ncc(C(=O)N4CC[C@@H](c5ccccc5C(F)(F)F)C4)c3C3CC3)CC2)CC1 [Example 44, 1-{5-cyclopropyl-1-[1-(4-oxopiperidine-1-carbonyl)piperidin-4-yl]-1H-pyrazole-4-carbonyl}-[(S)-3-(2-trifluoromethylphenyl)]pyrrolidine]	< 30 nM

Same assay, conditions: recombinant human HSD-1 expressed using baculovirus system; 10 nM 3H cortisone, 500 μM NADPH; room temperature 90 to 120 min; read-out: hHSD1 (IC50 (nM))

Compound	IC50
O=C(c1cnn(C2CCN(c3cnccn3)CC2)c1C1CC1)N1CC[C@@H](c2ccccc2C(F)(F)F)C1 [Example 129, 1-[5-cyclopropyl-1-(1-pyrazin-2-ylpiperidin-4-yl)-1H-pyrazole-4-carbonyl]-[(S)-3-(2-trifluoromethylphenyl)]pyrrolidine hydrochloride]	< 30 nM
CC(=O)N1CCC[C@H]1C(=O)N1CCC(n2ncc(C(=O)N3CC[C@@H](c4ccccc4C(F)(F)F)C3)c2C2CC2)CC1 [Example 89, 1-(1-{1-[(S)-1-acetylpyrrolidine-2-carbonyl]piperidin-4-yl}-5-cyclopropyl-1H-pyrazole-4-carbonyl)-[(S)-3-(2-trifluoromethylphenyl)]pyrrolidine]	< 30 nM
CC1(c2c(C(=O)N3CCC(CO)(c4ccc(F)cc4)C3)cnn2C2CCN(c3ncccn3)CC2)CC1 (single isomer, unassigned; (+)) [Example 128, (+)-3-(4-fluorophenyl)-3-hydroxymethyl-1-{5-(1-methylcyclopropyl)-1-[1-(pyrimidin-2-yl)piperidin-4-yl]-1H-pyrazole-4-carbonyl}pyrrolidine hydrochloride]	< 30 nM
CC(C)(C(N)=O)N1CCC(n2ncc(C(=O)N3CC[C@@H](c4ccccc4C(F)(F)F)C3)c2C2CC2)CC1 [Example 96, 1-{1-[1-(1-carbamoyl-1-methylethyl)piperidin-4-yl]-5-cyclopropyl-1H-pyrazole-4-carbonyl}-[(S)-3-(2-trifluoromethylphenyl)]pyrrolidine hydrochloride]	< 30 nM
O=C(O)c1cccc(N2CCC(n3ncc(C(=O)N4CCC(c5ccccc5C(F)(F)F)C4)c3C3CC3)CC2)c1 (stereo not shown) [Example 114, 3-(4-{5-cyclopropyl-4-[3-(2-trifluoromethylphenyl)pyrrolidine-1-carbonyl]pyrazol-1-yl}piperidin-1-yl)benzoic acid]	< 30 nM
Cc1nc(N2CCC(n3ncc(C(=O)N4CC[C@@H](c5ccccc5C(F)(F)F)C4)c3C3CC3)CC2)n[nH]1 [Example 117, 1-{5-cyclopropyl-1-[1-(5-methyl-4H-[1,2,4]triazol-3-yl)piperidin-4-yl]-1H-pyrazole-4-carbonyl}-[(S)-3-(2-trifluoromethylphenyl)]pyrrolidine hydrochloride]	< 30 nM
C[C@@H](CO)NC(=O)N1CCC(n2ncc(C(=O)N3CC[C@@H](c4ccccc4C(F)(F)F)C3)c2C2CC2)CC1 [Example 23, 1-(5-cyclopropyl-1-{1-[(S)-2-hydroxy-1-methylethylcarbamoyl]piperidin-4-yl}-1H-pyrazole-4-carbonyl)-[(S)-3-(2-trifluoromethylphenyl)]pyrrolidine]	< 30 nM
CN(C)CCNC(=O)N1CCC(n2ncc(C(=O)N3CC[C@@H](c4ccccc4C(F)(F)F)C3)c2C2CC2)CC1 [Example 13, 1-{5-cyclopropyl-1-[1-(2-dimethylaminoethylcarbamoyl)piperidin-4-yl]-1H-pyrazole-4-carbonyl}-[(S)-3-(2-trifluoromethylphenyl)]pyrrolidine hydrochloride]	< 30 nM
CN(C)CC(=O)N1CCC(n2ncc(C(=O)N3CC[C@@H](c4ccccc4C(F)(F)F)C3)c2C2CC2)CC1 [Example 67, 1-{5-cyclopropyl-1-[1-(2-dimethylaminoacetyl)piperidin-4-yl]-1H-pyrazole-4-carbonyl}-[(S)-3-(2-trifluoromethylphenyl)]pyrrolidine hydrochloride]	< 30 nM
O=C(Nc1ccccc1F)N1CCC(n2ncc(C(=O)N3CCC(c4cccnc4)C3)c2C2CCCCC2)CC1 (stereo not shown) [Example 139, 1-{5-cyclohexyl-1-[1-(2-fluorophenylcarbamoyl)piperidin-4-yl]-1H-pyrazole-4-carbonyl}-3-(pyridin-3-yl)pyrrolidine]	< 30 nM
CC(C(N)=O)N1CCC(n2ncc(C(=O)N3CC[C@@H](c4ccccc4C(F)(F)F)C3)c2C2CC2)CC1 (stereo partly drawn) [Example 103, 1-{1-[1-(1-carbamoylethyl)piperidin-4-yl]-5-cyclopropyl-1H-pyrazole-4-carbonyl}-[(S)-3-(2-trifluoromethylphenyl)]pyrrolidine hydrochloride]	< 30 nM
NC(=O)[C@H]1CC[C@H](n2ncc(C(=O)N3CC[C@@H](c4ccccc4C(F)(F)F)C3)c2C2CC2)CC1 [Example 130, 1-[1-(trans-4-carbamoylcyclohexyl)-5-cyclopropyl-1H-pyrazole-4-carbonyl]-[(S)-3-(2-trifluoromethylphenyl)]pyrrolidine]	< 30 nM
O=C1CN(C(=O)N2CCC(n3ncc(C(=O)N4CC[C@@H](c5ccccc5C(F)(F)F)C4)c3C3CC3)CC2)CCN1 [Example 26, 1-{5-cyclopropyl-1-[1-(3-oxopiperazine-1-carbonyl)piperidin-4-yl]-1H-pyrazole-4-carbonyl}-[(S)-3-(2-trifluoromethylphenyl)]pyrrolidine]	< 30 nM
O=C(c1cnn(C2CCN(C(=O)N3CC(O)C3)CC2)c1C1CC1)N1CC[C@@H](c2ccccc2C(F)(F)F)C1 [Example 20, 1-{5-cyclopropyl-1-[1-(3-hydroxyazetidine-1-carbonyl)piperidin-4-yl]-1H-pyrazole-4-carbonyl}-[(S)-3-(2-trifluoromethylphenyl)]pyrrolidine]	< 30 nM
CC(C)(CO)C(=O)N1CCC(n2ncc(C(=O)N3CC[C@@H](c4ccccc4C(F)(F)F)C3)c2C2CC2)CC1 [Example 76, 1-{5-cyclopropyl-1-[1-(3-hydroxy-2,2-dimethylpropionyl)piperidin-4-yl]-1H-pyrazole-4-carbonyl}-[(S)-3-(2-trifluoromethylphenyl)]pyrrolidine]	< 30 nM
CC1(C(=O)N2CCC(n3ncc(C(=O)N4CC[C@@H](c5ccccc5C(F)(F)F)C4)c3C3CC3)CC2)CC1 [Example 69, 1-{5-cyclopropyl-1-[1-(1-methylcyclopropanecarbonyl)piperidin-4-yl]-1H-pyrazole-4-carbonyl}-[(S)-3-(2-trifluoromethylphenyl)]pyrrolidine]	< 30 nM
CC(=O)NCCC(=O)N1CCC(n2ncc(C(=O)N3CC[C@@H](c4ccccc4C(F)(F)F)C3)c2C2CC2)CC1 [Example 75, 1-{1-[1-(3-acetylaminopropionyl)piperidin-4-yl]-5-cyclopropyl-1H-pyrazole-4-carbonyl}-[(S)-3-(2-trifluoromethylphenyl)]pyrrolidine]	< 30 nM
O=C(c1ccccc1Cl)N1CCC(n2ncc(C(=O)N3CCC(c4cccnc4)C3)c2C2CC2)CC1 (stereo not shown) [Example 157, 1-{1-[1-(2-chlorobenzoyl)piperidin-4-yl]-5-cyclopropyl-1H-pyrazole-4-carbonyl}-3-(pyridin-3-yl)pyrrolidine]	< 30 nM
O=C(c1cnn(C2CCN(C3CC3)CC2)c1C1CC1)N1CC[C@@H](c2ccccc2C(F)(F)F)C1 [Example 99, 1-[5-cyclopropyl-1-(1-cyclopropylpiperidin-4-yl)-1H-pyrazole-4-carbonyl]-[(S)-3-(2-trifluoromethylphenyl)]pyrrolidine hydrochloride]	< 30 nM
CC(C)C(=O)NCC(=O)N1CCC(n2ncc(C(=O)N3CC[C@@H](c4ccccc4C(F)(F)F)C3)c2C2CC2)CC1 [Example 87, 1-{5-cyclopropyl-1-[1-(2-isobutyrylaminoacetyl)piperidin-4-yl]-1H-pyrazole-4-carbonyl}-[(S)-3-(2-trifluoromethylphenyl)]pyrrolidine]	< 30 nM
O=C(c1cnn(C2CCN(C(=O)N3CCS(=O)(=O)CC3)CC2)c1C1CC1)N1CC[C@@H](c2ccccc2C(F)(F)F)C1 [Example 12, 1-{5-cyclopropyl-1-[1-(1,1-dioxothiomorpholine-4-carbonyl)piperidin-4-yl]-1H-pyrazole-4-carbonyl}-[(S)-3-(2-trifluoromethylphenyl)]pyrrolidine]	< 30 nM
O=C(CO)N1CCC(n2ncc(C(=O)N3CC[C@@H](c4ccccc4C(F)(F)F)C3)c2C2CC2)CC1 [Example 65, 1-{5-cyclopropyl-1-[1-(2-hydroxyacetyl)piperidin-4-yl]-1H-pyrazole-4-carbonyl}-[(S)-3-(2-trifluoromethylphenyl)]pyrrolidine]	< 30 nM
CC(=O)NC1CCN(C(=O)N2CCC(n3ncc(C(=O)N4CC[C@@H](c5ccccc5C(F)(F)F)C4)c3C3CC3)CC2)CC1 [Example 39, 1-{1-[1-(4-acetylaminopiperidine-1-carbonyl)piperidin-4-yl]-5-cyclopropyl-1H-pyrazole-4-carbonyl}-[(S)-3-(2-trifluoromethylphenyl)]pyrrolidine]	< 30 nM
O=C(Nc1ccccc1F)N1CCC(n2ncc(C(=O)N3CCC(c4ccccc4OC(F)(F)F)C3)c2C2CC2)CC1 (stereo not shown) [Example 140, 1-{5-cyclopropyl-1-[1-(2-fluorophenylcarbamoyl)piperidin-4-yl]-1H-pyrazole-4-carbonyl}-3-(2-trifluoromethoxyphenyl)pyrrolidine]	< 30 nM
NCCNC(=O)N1CCC(n2ncc(C(=O)N3CC[C@@H](c4ccccc4C(F)(F)F)C3)c2C2CC2)CC1 [Example 11, 1-{1-[1-(2-aminoethylcarbamoyl)piperidin-4-yl]-5-cyclopropyl-1H-pyrazole-4-carbonyl}-[(S)-3-(2-trifluoromethylphenyl)]pyrrolidine hydrochloride]	< 30 nM
NC1CCN(C(=O)N2CCC(n3ncc(C(=O)N4CC[C@@H](c5ccccc5C(F)(F)F)C4)c3C3CC3)CC2)CC1 [Example 35, 1-{1-[1-(4-aminopiperidine-1-carbonyl)piperidin-4-yl]-5-cyclopropyl-1H-pyrazole-4-carbonyl}-[(S)-3-(2-trifluoromethylphenyl)]pyrrolidine hydrochloride]	< 30 nM
O=C(NCC(F)(F)F)N1CCC(n2ncc(C(=O)N3CC[C@@H](c4ccccc4C(F)(F)F)C3)c2C2CC2)CC1 [Example 47, 1-{5-cyclopropyl-1-[1-(2,2,2-trifluoroethylcarbamoyl)piperidin-4-yl]-1H-pyrazole-4-carbonyl}-[(S)-3-(2-trifluoromethylphenyl)]pyrrolidine]	< 30 nM
